Where no end group is shown, it is not given here.

In this experiment the test system is E. coli (CCUG 29300). In words: Endotoxin binding of AMP functionalised crosslinked hydrogel particle dispersion, chromogenic LAL endotoxin assay. The note with it: E. coli 10^6 CFU/ml, 37° C., 1 hour, 3 hours and 24 hours, FIG. 2 and 3. The class given is cell-based.

On to “RRPRPRPRPWWWW-NH2 [RRP9W4N, PRELP derived amphiphilic antimicrobial peptide, free in PBS solution]”, for which the endotoxin neutralisation entry is “neutralised endotoxins in all measured durations of incubation”.

Source of the values: patent US20260242413A1, “ENDOTOXIN NE[…]” (AMFERIA AB, priority 2023, published 2026).
